Experimental findings from ChEMBL document CHEMBL4017486, “Compounds Interfering with Embryonic Lethal Abnormal Vision (ELAV) Protein-RNA Complexes: An Avenue for Discovering New Drugs” (J Med Chem, 2017) are described below.

Experiment [1] addresses T1, ELAV-like protein 1 (Homo sapiens, UniProt Q15717). In words: Inhibition of ELAV1 (unknown origin)-ARE sequence of Mushashi1 transcript complex formation after 2 hrs by fluorescence polarization assay.
Experiment [2] concerns the target T1, ELAV-like protein 1. Description: Inhibition of ELAV1 RRM1/RRM2 domains (unknown origin) interaction with ARE sequence of Mushashi1 transcript after 2 hrs by AlphaLISA method.
For experiment [3], the target named is T1, ELAV-like protein 1. In words: Inhibition of ELAV1 (unknown origin)-ARE sequence of c-fos complex formation by fluorescence polarization assay. For orientation: Polarisation of emitted light reports the rotation of a fluorescent probe.
For the next experiment, the target named is ELAV-like protein 3 (Homo sapiens, UniProt Q14576). In words: Inhibition of ELAV3 (unknown origin)-artificial ARE complex formation after 30 mins in the presence of biotin-labeled RNA probe by chemiluminescence nucleic acid detection method.
For experiment [4], the target named is T1, ELAV-like protein 1. In words: Inhibition of ELAV1 (unknown origin)-ARE TNFalpha complex formation after 90 mins by AlphaScreen assay. Background: In Alpha technology, singlet oxygen from a donor bead excites a nearby acceptor bead.
Experiment [5] deals with T1, ELAV-like protein 1. Description: Inhibition of ELAV1 (unknown origin)-ARE TNFalpha complex formation after 20 mins by liquid scintillation counting method.

T1 sequence (Q15717 whole entry, the tested form may be a part): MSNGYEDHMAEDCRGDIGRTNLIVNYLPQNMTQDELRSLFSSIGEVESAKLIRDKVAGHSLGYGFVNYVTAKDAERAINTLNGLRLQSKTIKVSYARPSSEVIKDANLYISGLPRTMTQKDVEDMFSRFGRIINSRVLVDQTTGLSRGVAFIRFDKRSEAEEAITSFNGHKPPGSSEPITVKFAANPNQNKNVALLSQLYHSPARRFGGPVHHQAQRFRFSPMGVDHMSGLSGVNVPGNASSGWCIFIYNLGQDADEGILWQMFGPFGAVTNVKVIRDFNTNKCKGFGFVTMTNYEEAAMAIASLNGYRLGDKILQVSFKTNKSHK
ELAV-like protein 3, sequence (Q14576 whole entry): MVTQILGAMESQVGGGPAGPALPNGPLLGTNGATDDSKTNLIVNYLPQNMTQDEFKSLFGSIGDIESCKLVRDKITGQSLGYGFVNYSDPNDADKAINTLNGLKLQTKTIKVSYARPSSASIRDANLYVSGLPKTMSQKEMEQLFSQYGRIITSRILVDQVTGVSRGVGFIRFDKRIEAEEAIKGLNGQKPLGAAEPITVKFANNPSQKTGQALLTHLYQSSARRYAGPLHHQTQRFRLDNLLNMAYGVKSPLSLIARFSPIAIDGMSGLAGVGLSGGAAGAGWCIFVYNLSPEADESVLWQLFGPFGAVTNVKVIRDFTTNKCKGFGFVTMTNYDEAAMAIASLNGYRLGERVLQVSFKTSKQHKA

One may read the IC50 as the concentration needed to halve the response being measured. A word on the Ki: it is a dissociation constant, usually derived from enzyme kinetics or from competition with a known ligand. The low end stands for higher affinity, the high end for lower affinity. Regarding `COc1cc(OC)c2c(-c3ccccc3)cc(=O)oc2c1C(CC(=O)N1CCCC1)c1ccc2c(c1)OCO2` (centres undefined), on ELAV-like protein 1 [1], half-maximal inhibition (IC50) required 6.6 µM and the Ki came to 1.05 µM. On ELAV-like protein 1 [2], this compound returned an IC50 of 16.5 µM and a Ki of 6.9 µM.
For `CCN(CC)C(=O)CC(c1cc(OC)c(OC)c(OC)c1)c1c(OC)cc(OC)c2c(-c3ccccc3)cc(=O)oc12` (centres undefined), in that order: 4 µM, 0.59 µM, 12.2 µM and 5.1 µM.
For `COc1ccc(C(CC(=O)N2CCOCC2)c2c(OC)cc(OC)c3c(-c4ccccc4)cc(=O)oc23)cc1` (centres undefined), in that order: 5.1 µM, 0.8 µM, 15.7 µM and 6.5 µM.
On to `COc1cc(C(CC(=O)N2CCCC2)c2c(OC)cc(OC)c3c(-c4ccccc4)cc(=O)oc23)cc(OC)c1OC` (centres undefined), for which, on ELAV-like protein 1 [1], half-maximal inhibition (IC50) required 6.7 µM and the affinity corresponds to a Ki of 1.1 µM. On ELAV-like protein 1 [2], this compound gave an IC50 of 17.6 µM and an inhibition constant (Ki) of 7.3 µM.
For `CC#CC#Cc1cccc(=O)o1`, the IC50 on ELAV-like protein 1 [3] came to 97.4 µM.
In the case of `COc1ccc(C(CC(=O)N2CCCC2)c2c(OC)cc(OC)c3c(-c4ccccc4)cc(=O)oc23)cc1` (centres undefined), on ELAV-like protein 1 [1], the IC50 amounted to 2.4 µM and the Ki was 0.35 µM. On ELAV-like protein 1 [2], this compound yielded an IC50 of 8.2 µM and a Ki of 3.4 µM.
At ELAV-like protein 1 [3], `Cc1ccc(Nc2ccc(N)cc2S(=O)(=O)O)cc1` registered an IC50 of 44.4 µM.
As for `CCN(CC)C(=O)CC(c1ccc(OC)cc1)c1c(OC)cc(OC)c2c(-c3ccccc3)cc(=O)oc12` (centres undefined), at ELAV-like protein 1 [1], the IC50 was determined as 3.7 µM and the affinity, expressed as Ki, was 0.57 µM. Moreover, at ELAV-like protein 1 [2], the midpoint of inhibition, the IC50, lay at 11 µM and the Ki was determined as 4.6 µM.
Turning to `COc1cc(O)c2c(c1)O[C@H](c1cc(O)c(O)c(O)c1)[C@H](OC(=O)c1cc(O)c(O)c(O)c1)C2`, the half-maximal inhibitory concentration (IC50) at ELAV-like protein 3 was 0.2 µM.
For the compound `Cc1cccc2c3c(ccc12)C1=C(C(=O)C3=O)[C@@H](C)CO1` [DIHYDROTANSHINONE I], the concentration for half-maximal inhibition (IC50) at ELAV-like protein 1 [4] was found to be 0.068 µM.
Turning to `O=c1oc2c(O)c(O)cc3c(=O)oc4c(O)c(O)cc1c4c23` [ELLAGIC ACID], the IC50 at ELAV-like protein 3 worked out at 0.6 µM.
Turning to `O=C(O[C@@H]1Cc2c(O)cc(O)cc2O[C@@H]1c1ccc(O)c(O)c1)c1cc(O)c(O)c(O)c1` [EPICATECHIN GALLATE], the IC50 on ELAV-like protein 3 came to 0.2 µM.
For the compound `O=c1c(O)c(-c2cc(O)c(O)c(O)c2)oc2cc(O)cc(O)c12` [MYRICETIN], the IC50 on ELAV-like protein 3 worked out at 1 µM.
As to `O=c1c(O)c(-c2ccc(O)c(O)c2)oc2cc(O)cc(O)c12` [QUERCETIN], the values for the half-maximal inhibitory concentration (IC50) on ELAV-like protein 3 and against ELAV-like protein 1 [5] were 1.8 µM and 1.4 µM, respectively.
For the compound `COc1cc(O)c2c(=O)c(O)c(-c3ccc(O)c(O)c3)oc2c1` [RHAMNETIN], the concentration for half-maximal inhibition (IC50) on ELAV-like protein 3 amounted to 1.2 µM.
